{
  "source": "ChEMBL document CHEMBL3351502",
  "about": "“Flavones: an important scaffold for medicinal chemistry” (Eur J Med Chem, 2014)",
  "key": {"Staphylococcus aureus": {"system": "Staphylococcus aureus", "assay": "Antimicrobial activity against Staphylococcus aureus", "type": "functional"}, "Homo sapiens": {"organism": "Homo sapiens", "assay": "Inhibition of alpha glucosidase (unknown origin) at 0.5 mg/ml"}, "[1]": {"target": "Xanthine dehydrogenase/oxidase (Homo sapiens, UniProt P47989)", "sequence (P47989 whole entry)": "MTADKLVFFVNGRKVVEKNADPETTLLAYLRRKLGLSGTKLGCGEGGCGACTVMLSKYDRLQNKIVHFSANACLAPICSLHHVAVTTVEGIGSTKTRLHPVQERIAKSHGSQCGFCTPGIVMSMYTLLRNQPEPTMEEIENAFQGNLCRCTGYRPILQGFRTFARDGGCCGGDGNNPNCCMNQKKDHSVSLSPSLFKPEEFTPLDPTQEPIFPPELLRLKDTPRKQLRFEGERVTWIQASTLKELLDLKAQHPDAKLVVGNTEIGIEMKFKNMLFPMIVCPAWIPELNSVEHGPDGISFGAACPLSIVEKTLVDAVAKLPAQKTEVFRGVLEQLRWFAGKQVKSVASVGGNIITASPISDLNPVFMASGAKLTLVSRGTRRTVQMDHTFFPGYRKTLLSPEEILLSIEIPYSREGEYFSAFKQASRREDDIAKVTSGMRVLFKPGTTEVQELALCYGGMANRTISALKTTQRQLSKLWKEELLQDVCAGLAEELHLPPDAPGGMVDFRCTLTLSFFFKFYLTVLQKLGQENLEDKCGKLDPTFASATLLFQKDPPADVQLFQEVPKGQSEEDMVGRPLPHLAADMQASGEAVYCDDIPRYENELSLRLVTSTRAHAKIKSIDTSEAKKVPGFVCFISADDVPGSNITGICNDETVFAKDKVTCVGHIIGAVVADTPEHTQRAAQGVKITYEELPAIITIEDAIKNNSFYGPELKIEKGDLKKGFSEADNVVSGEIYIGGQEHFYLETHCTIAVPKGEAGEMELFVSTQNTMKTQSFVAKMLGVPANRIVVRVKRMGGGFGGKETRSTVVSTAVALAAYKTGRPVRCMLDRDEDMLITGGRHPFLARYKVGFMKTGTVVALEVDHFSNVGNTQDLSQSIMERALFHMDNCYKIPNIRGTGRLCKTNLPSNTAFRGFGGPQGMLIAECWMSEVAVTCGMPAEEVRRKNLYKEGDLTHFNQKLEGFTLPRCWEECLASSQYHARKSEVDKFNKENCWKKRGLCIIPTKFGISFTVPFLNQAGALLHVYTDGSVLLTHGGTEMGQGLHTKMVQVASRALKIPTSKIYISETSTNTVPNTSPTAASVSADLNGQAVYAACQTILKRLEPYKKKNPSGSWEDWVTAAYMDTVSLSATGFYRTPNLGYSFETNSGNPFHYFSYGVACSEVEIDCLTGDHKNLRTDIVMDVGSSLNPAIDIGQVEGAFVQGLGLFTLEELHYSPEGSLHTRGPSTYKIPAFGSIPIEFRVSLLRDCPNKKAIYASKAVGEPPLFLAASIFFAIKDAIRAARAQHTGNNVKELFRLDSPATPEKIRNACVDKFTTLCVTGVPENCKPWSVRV", "assay": "Inhibition of xanthine oxidase (unknown origin)"}, "LNCaP": {"system": "LNCaP", "assay": "Downregulation of prostate specific antigen secretion in human LNCAP cells", "type": "functional, cell-based"}, "[2]": {"assay": "Inhibition of advanced glycation end product formation", "type": "physicochemical"}, "Acetylcholinesterase": {"target": "Acetylcholinesterase (Homo sapiens, UniProt P22303)", "sequence (P22303 whole entry)": "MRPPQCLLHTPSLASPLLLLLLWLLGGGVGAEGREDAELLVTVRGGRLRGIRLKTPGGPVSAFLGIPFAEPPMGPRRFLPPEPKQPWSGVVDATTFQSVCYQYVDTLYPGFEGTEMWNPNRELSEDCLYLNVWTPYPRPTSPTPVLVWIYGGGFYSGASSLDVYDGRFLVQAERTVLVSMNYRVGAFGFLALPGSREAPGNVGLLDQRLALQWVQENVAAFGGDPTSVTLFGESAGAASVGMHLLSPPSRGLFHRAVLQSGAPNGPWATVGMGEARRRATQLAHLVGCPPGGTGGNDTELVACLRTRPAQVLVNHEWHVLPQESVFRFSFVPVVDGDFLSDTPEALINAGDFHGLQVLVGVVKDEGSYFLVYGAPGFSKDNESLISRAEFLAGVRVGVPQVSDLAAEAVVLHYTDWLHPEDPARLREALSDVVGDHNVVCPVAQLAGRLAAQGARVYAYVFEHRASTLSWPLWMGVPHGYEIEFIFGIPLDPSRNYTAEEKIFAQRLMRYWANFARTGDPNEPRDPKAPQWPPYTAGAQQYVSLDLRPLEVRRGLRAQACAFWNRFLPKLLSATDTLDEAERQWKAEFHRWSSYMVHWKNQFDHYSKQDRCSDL", "assay": "Inhibition of AChE (unknown origin)"}, "[3]": {"target": "Benzodiazepine receptors; peripheral & central", "assay": "Binding affinity to benzodiazepine receptor (unknown origin)", "type": "protein assay, Homo sapiens"}, "Plasmodium falciparum": {"system": "Plasmodium falciparum", "assay": "Antimicrobial activity against Plasmodium falciparum", "type": "functional, organism-based"}, "Adenosine receptor A3": {"target": "T1, Adenosine receptor A3 (Homo sapiens, UniProt P0DMS8)", "T1 sequence (P0DMS8 whole entry)": "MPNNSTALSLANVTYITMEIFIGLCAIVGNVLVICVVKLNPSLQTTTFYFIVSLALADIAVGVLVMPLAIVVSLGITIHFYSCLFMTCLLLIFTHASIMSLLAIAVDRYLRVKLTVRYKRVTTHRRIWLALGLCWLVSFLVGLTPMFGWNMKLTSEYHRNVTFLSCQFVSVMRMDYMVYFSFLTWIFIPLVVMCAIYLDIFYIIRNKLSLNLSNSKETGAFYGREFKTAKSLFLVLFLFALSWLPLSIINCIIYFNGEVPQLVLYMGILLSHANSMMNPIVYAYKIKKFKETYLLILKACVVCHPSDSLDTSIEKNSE", "assay": "Binding affinity to human adenosine A3 receptor"}, "[4]": {"target": "T2, Cystic fibrosis transmembrane conductance regulator (Homo sapiens, UniProt P13569)", "T2 sequence (P13569 whole entry)": "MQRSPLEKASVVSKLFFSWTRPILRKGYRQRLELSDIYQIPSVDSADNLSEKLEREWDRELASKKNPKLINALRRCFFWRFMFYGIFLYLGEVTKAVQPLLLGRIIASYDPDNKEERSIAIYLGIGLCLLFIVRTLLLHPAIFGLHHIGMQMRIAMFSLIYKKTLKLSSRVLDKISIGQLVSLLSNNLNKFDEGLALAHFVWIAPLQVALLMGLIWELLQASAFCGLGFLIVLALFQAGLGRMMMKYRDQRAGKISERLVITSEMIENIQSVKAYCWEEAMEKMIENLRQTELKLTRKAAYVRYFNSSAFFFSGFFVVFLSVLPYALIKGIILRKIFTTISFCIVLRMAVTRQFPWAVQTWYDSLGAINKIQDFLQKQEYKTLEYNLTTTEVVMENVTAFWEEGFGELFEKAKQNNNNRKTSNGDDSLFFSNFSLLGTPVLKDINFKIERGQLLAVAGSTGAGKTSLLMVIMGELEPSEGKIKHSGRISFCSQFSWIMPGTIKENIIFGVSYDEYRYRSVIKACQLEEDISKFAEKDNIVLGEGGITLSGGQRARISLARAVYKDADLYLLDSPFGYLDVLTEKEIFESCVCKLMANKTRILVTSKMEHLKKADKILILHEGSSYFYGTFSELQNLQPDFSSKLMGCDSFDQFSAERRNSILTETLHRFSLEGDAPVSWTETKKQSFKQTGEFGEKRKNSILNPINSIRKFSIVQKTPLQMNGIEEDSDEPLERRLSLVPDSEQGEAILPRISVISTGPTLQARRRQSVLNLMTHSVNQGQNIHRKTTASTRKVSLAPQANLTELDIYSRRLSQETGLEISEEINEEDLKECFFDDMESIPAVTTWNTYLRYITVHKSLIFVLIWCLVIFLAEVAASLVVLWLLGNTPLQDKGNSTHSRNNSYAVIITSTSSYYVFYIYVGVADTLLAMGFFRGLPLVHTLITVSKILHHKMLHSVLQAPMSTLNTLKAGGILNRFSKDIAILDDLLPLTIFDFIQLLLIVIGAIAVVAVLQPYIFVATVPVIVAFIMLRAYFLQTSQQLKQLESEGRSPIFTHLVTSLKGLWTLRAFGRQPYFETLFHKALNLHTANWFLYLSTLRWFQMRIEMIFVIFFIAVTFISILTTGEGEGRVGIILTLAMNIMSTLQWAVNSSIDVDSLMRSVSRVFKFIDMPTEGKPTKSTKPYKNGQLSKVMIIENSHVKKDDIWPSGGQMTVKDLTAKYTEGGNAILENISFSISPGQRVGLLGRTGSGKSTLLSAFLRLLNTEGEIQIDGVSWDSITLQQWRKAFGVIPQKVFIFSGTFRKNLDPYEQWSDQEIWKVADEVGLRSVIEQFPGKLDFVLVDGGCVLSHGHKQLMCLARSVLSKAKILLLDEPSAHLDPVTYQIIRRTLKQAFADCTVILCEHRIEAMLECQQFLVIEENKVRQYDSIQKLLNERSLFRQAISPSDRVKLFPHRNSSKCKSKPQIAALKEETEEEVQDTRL", "assay": "Inhibition of forskolin-stimulated CFTR (unknown origin)"}, "[5]": {"target": "T2, Cystic fibrosis transmembrane conductance regulator", "assay": "Stimulation of CFTR (unknown origin)"}, "Leishmania": {"system": "Leishmania", "assay": "Leishmanicidal activity against Leishmania", "type": "functional, organism-based"}, "[6]": {"target": "T3, Succinate-semialdehyde dehydrogenase, mitochondrial (Homo sapiens, UniProt P51649)", "T3 sequence (P51649 whole entry)": "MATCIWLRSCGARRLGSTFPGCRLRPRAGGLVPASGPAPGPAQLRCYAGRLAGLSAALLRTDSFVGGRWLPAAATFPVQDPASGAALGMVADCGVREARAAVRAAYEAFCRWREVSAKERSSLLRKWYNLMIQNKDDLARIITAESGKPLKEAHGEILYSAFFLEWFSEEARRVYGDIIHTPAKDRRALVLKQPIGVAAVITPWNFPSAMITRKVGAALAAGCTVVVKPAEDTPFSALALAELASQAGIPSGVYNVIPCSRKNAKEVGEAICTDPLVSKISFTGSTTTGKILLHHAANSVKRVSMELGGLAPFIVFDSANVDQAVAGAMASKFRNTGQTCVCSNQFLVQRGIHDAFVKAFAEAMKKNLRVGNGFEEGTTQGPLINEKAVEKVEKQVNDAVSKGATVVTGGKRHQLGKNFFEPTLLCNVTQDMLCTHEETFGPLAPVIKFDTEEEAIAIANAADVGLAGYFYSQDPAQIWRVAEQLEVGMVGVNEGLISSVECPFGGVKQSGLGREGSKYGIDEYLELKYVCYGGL", "assay": "Inhibition of SSADH (unknown origin)"}, "[7]": {"target": "Telomerase reverse transcriptase (Homo sapiens, UniProt O14746)", "assay": "Inhibition of telomerase activity (unknown origin)"}, "[8]": {"assay": "Inhibition of alpha glucosidase (unknown origin)", "design": "species or system Homo sapiens"}, "[9]": {"target": "4-aminobutyrate aminotransferase, mitochondrial (Homo sapiens, UniProt P80404)", "sequence (P80404 whole entry)": "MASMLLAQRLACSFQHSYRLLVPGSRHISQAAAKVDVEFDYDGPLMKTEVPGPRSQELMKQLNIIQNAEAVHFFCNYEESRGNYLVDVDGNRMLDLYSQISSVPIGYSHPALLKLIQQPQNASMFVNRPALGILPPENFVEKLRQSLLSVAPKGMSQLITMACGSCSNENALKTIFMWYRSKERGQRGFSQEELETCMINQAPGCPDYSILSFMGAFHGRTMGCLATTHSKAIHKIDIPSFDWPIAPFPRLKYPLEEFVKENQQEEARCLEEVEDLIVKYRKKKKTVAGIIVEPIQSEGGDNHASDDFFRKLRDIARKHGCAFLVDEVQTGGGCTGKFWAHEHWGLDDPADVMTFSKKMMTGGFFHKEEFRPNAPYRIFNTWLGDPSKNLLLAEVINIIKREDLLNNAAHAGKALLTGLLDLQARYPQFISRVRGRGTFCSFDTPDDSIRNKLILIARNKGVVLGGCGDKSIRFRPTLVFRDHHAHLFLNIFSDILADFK", "assay": "Inhibition of GABA transaminase (unknown origin)"}, "[10]": {"assay": "Competitive inhibition of muscarinic receptor (unknown origin)", "design": "species or system Homo sapiens"}, "[11]": {"target": "T4, Human immunodeficiency virus type 1 integrase (Human immunodeficiency virus 1, UniProt Q7ZJM1)", "T4 sequence (Q7ZJM1 whole entry)": "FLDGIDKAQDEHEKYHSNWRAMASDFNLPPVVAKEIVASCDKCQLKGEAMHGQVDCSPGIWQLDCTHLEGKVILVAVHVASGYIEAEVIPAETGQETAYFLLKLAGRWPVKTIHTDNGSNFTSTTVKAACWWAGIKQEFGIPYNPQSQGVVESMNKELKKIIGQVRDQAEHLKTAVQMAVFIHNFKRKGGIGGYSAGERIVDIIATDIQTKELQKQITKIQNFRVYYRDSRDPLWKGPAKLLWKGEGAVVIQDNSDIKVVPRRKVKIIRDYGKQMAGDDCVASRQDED", "assay": "Inhibition of HIV-1 integrase strand transfer activity"}, "[12]": {"target": "T4, Human immunodeficiency virus type 1 integrase", "assay": "Inhibition of HIV-1 integrase terminal cleavage activity"}, "Rattus norvegicus": {"organism": "Rattus norvegicus", "assay": "Antiulcer activity in rat assessed as protection from indomethacin-induced gastric damage", "type": "functional", "settings": "Stomach"}},
  "data": [
    {"smiles": "N=C(NC1CCCCC1)c1ccc2nc(-c3ccc4oc(-c5ccccc5)cc(=O)c4c3)[nH]c2c1", "values": [
      {"measurement": "MIC", "setting": "Staphylococcus aureus", "result": 1.56, "unit": "µg/mL"}
    ]},
    {"smiles": "O=c1cc(-c2ccc(O)c(O)c2)oc2cc(O)cc(O)c12", "note": "[LUTEOLIN]", "values": [
      {"measurement": "inhibition", "setting": "Homo sapiens", "result": 36, "unit": "%"},
      {"measurement": "Ki", "setting": "[1]", "result": 2.9, "unit": "µM"},
      {"measurement": "IC50", "setting": "LNCaP", "result": 5, "unit": "µM"},
      {"measurement": "IC50", "setting": "[2]", "result": 99, "unit": "µM"}
    ]},
    {"smiles": "COc1cc2oc(-c3ccc(CN4CCCC4)cc3)cc(=O)c2cc1OC", "values": [
      {"measurement": "IC50", "setting": "Acetylcholinesterase", "result": 0.034, "unit": "µM"}
    ]},
    {"smiles": "O=c1cc(-c2cccc([N+](=O)[O-])c2)oc2ccc([N+](=O)[O-])cc12", "values": [
      {"measurement": "Ki", "setting": "[3]", "result": 0.0015, "unit": "µM"}
    ]},
    {"smiles": "O=C1c2c(O)cc(O)cc2O[C@H](c2ccc(O)cc2)[C@H]1[C@@H]1C(=O)c2c(O)cc(O)cc2O[C@H]1c1ccc(O)cc1", "values": [
      {"measurement": "IC50", "setting": "Plasmodium falciparum", "result": 7.3, "unit": "µM"}
    ]},
    {"smiles": "O=c1cc(-c2ccc(CN3CCCCC3)cc2)oc2ccccc12", "values": [
      {"measurement": "IC50", "setting": "Acetylcholinesterase", "result": 0.055, "unit": "µM"}
    ]},
    {"smiles": "COc1cc([C@H]2Oc3cc(-c4cc(=O)c5ccccc5o4)ccc3O[C@@H]2CO)ccc1O", "values": [
      {"measurement": "MIC", "setting": "Staphylococcus aureus", "result": 0.08, "unit": "µg/mL"}
    ]},
    {"smiles": "Cc1ccc(-c2oc3ccc(Cl)cc3c(=O)c2O)c(OC(C)C)c1", "values": [
      {"measurement": "Ki", "setting": "Adenosine receptor A3", "result": 0.56, "unit": "µM"}
    ]},
    {"smiles": "O=c1cc(-c2ccc(O)cc2)oc2cc(O)cc(O)c12", "note": "[APIGENIN]", "values": [
      {"measurement": "Ki", "setting": "[1]", "result": 0.52, "unit": "µM"},
      {"measurement": "Ki", "setting": "[4]", "result": 81, "unit": "µM"},
      {"measurement": "EC50", "setting": "[5]", "result": 9, "unit": "µM"}
    ]},
    {"smiles": "Cc1ccc2oc(-c3cc(Br)ccc3O)cc(=O)c2c1", "values": [
      {"measurement": "Ki", "setting": "[3]", "result": 0.0009, "unit": "µM"}
    ]},
    {"smiles": "O=c1cc(-c2ccc(OCCOCCN(CCOCCOc3ccc(-c4cc(=O)c5ccccc5o4)cc3)Cc3ccncc3)cc2)oc2ccccc12", "values": [
      {"measurement": "IC50", "setting": "Leishmania", "result": 0.13, "unit": "µM"}
    ]},
    {"smiles": "O=c1cc(-c2ccc(O)cc2)oc2cc(O)c(O)c(O)c12", "note": "[SCUTELLAREIN]", "values": [
      {"measurement": "IC50", "setting": "[6]", "result": 7200, "unit": "µM"}
    ]},
    {"smiles": "O=c1cc(-c2cccc([N+](=O)[O-])c2)oc2ccc(Br)cc12", "values": [
      {"measurement": "Ki", "setting": "[3]", "result": 0.0015, "unit": "µM"}
    ]},
    {"smiles": "O=c1cc(-c2ccc(OCc3ccc(Cl)nc3)cc2)oc2cc(OCc3ccc(Cl)nc3)ccc12", "values": [
      {"measurement": "IC50", "setting": "[7]", "result": 36.5, "unit": "µM"}
    ]},
    {"smiles": "O=c1cc(-c2ccccc2)oc2cc(O)c(O)c(O)c12", "note": "[BAICALEIN]", "values": [
      {"measurement": "IC50", "setting": "[8]", "result": 52, "unit": "µM"},
      {"measurement": "IC50", "setting": "[9]", "result": 12800, "unit": "µM"},
      {"measurement": "IC50", "setting": "[2]", "result": 93, "unit": "µM"}
    ]},
    {"smiles": "COc1c(OC)c(OC)c2c(=O)c(OC)c(-c3ccc4c(c3)OCO4)oc2c1OC", "values": [
      {"measurement": "Ki", "setting": "[10]", "result": 76.5, "unit": "µM"}
    ]},
    {"smiles": "O=c1cc(-c2ccc(O)c(O)c2)oc2cc(O[C@@H]3O[C@H](CO)[C@@H](O)[C@H](O)[C@H]3OS(=O)(=O)O)cc(O)c12", "values": [
      {"measurement": "IC50", "setting": "[11]", "result": 400, "unit": "µM"},
      {"measurement": "IC50", "setting": "[12]", "result": 2100, "unit": "µM"}
    ]},
    {"smiles": "COc1cccc2oc(-c3ccc(F)cc3)cc(=O)c12", "values": [
      {"measurement": "ED50", "setting": "Rattus norvegicus", "result": 5.5, "unit": "mg/kg"}
    ]},
    {"smiles": "O=c1cc(-c2ccc(Oc3c(O)cc(O)c4c(=O)cc(-c5ccc(O)cc5)oc34)cc2)oc2cc(O)cc(O)c12", "note": "[LANAROFLAVONE]", "values": [
      {"measurement": "IC50", "setting": "Plasmodium falciparum", "result": 0.48, "unit": "µM"}
    ]}
  ]
}
